{"source": "patent US6656915B1", "about": "“Inhibiting T-cell proliferation” (Biocryst Pharmaceuticals, Inc., priority 1999, dated 2003)", "origin": "cited, not measured here", "key": {"[1]": {"details": "upon being administered to a host, alone"}, "[2]": {"system": "peripheral blood lymphocytes", "details": "dogs"}, "[3]": {"system": "peripheral blood lymphocytes", "details": "rats"}, "[4]": {"system": "human T-cells (CCRF-CEM and Molt-4 cells)", "details": "given with 2′-deoxyguanosine; CCRF-CEM and Molt-4 cells in cultures"}, "T-cells [5]": {"system": "T-cells", "details": "rats; given with 2′-deoxyguanosine"}, "T-cells [6]": {"system": "T-cells", "details": "humans; PNP inhibitor without exogenous 2′-deoxyguanosine"}, "PNP": {"biological_target": "PNP (Homo sapiens, UniProt P00491)", "sequence (P00491 whole entry)": "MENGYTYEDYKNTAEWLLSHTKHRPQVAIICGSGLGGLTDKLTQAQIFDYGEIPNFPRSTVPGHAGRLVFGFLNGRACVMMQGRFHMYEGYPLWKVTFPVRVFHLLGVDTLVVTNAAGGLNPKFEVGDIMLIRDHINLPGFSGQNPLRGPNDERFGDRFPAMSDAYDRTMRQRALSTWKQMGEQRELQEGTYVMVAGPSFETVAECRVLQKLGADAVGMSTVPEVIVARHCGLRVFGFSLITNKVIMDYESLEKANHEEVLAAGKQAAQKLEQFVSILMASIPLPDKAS", "details": "humans; indicating effective inhibition of PNP"}, "[7]": {"details": "2′-deoxyguanosine alone, without PNP inhibition"}}, "note": "Where two headings read alike, the source gives them in different places.", "data": [{"smiles": "Nc1nc2c(ncn2[C@H]2C[C@H](O)[C@@H](CO)O2)c(=O)[nH]1", "note": "[2′-deoxyguanosine]", "values": [{"measurement": "degradation of exogenous 2′-deoxyguanosine", "setting": "[1]", "value": "rapidly degrades"}, {"measurement": "cell counts (lymphopenia)", "setting": "[2]; [7]", "value": "did not significantly decrease cell counts"}, {"measurement": "cell counts (lymphopenia)", "setting": "[3]; [7]", "value": "did not significantly decrease cell counts"}]}, {"smiles": "Nc1nc2nc(N)[nH]c2c(=O)[nH]1", "note": "[8-Aminoguanine]", "values": [{"measurement": "proliferation of human T-cells", "setting": "[4]", "value": "inhibits the proliferation"}]}, {"smiles": "Nc1nc2c(nc(N)n2[C@@H]2O[C@H](CO)[C@@H](O)[C@H]2O)c(=O)[nH]1", "note": "[8-Aminoguanosine, reference compound]", "values": [{"measurement": "peripheral blood lymphocytes", "setting": "[2]; given with 2′-deoxyguanosine", "value": "profound fall"}, {"measurement": "levels of 2′-deoxyguanosine triphosphate (dGTP) in T-cells", "setting": "T-cells [5]", "value": "increased levels"}, {"measurement": "peripheral blood lymphocytes", "setting": "[3]; given with 2′-deoxyguanosine", "value": "profound fall"}]}, {"smiles": "Nc1nc2c(Cc3cccnc3)c[nH]c2c(=O)[nH]1", "note": "[9-(3-Pyridylmethyl)-9-deazaguanine]", "values": [{"measurement": "T-cell counts", "setting": "T-cells [6]", "value": "did not reduce T-cell counts"}, {"measurement": "plasma inosine levels", "setting": "PNP", "value": "increases plasma inosine levels"}]}]}
